Values quoted from earlier work as cited in patent US20220206017A1, “AEROBIC GLYCOLYSIS AND HYPERMETABOLIC STATES” (priority 2022, published 2022).
pKi: −log10 of the molar value.

Columns and labels:
[1] = target: T1, hexokinase II (Homo sapiens, UniProt P52789); settings: inhibition of hexokinase II; reported value
T1 sequence (P52789 1-917): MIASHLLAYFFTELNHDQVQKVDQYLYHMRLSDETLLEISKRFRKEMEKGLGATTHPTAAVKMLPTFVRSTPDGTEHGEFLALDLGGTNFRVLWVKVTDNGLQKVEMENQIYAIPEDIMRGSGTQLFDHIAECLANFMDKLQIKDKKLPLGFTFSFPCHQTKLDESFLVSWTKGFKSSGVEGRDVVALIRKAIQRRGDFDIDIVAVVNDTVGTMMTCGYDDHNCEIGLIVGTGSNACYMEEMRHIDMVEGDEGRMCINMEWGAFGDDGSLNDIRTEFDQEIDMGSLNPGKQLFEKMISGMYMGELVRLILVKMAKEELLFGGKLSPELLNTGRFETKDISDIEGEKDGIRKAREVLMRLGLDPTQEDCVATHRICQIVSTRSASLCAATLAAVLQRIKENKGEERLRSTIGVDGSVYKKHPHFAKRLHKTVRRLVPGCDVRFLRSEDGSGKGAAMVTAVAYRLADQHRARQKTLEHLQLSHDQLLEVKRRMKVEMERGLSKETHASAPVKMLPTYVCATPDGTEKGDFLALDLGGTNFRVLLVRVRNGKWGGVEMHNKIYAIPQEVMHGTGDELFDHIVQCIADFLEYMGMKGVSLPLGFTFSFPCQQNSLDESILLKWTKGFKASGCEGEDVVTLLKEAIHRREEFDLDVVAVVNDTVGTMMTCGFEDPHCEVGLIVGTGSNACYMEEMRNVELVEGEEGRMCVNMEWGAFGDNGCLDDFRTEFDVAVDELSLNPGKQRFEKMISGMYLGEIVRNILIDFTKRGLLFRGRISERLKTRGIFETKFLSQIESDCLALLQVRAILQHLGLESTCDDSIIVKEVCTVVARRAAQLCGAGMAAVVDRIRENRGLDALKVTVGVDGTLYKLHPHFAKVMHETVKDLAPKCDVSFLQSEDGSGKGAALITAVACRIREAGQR

[2] = 3BP and DCA intravenous; 2DG oral
[3] = test system: Red blood cells (RBC); settings: monotherapy at known clinical doses
[4] = test system: melanoma; settings: in vivo; compared to L-Lactic Acid Dimer (LLAD) and phosphate buffered saline control; FIG. 3, ref [4]

O=CC[C@@H](O)[C@H](O)[C@H](O)CO [2DG, 2-Deoxy-D-Glucose]
pKi [1]: 2.54 | side effects of administration / clinical use [2]: generally well tolerated | RBC hemolysis [3]: does not cause RBC hemolysis

O=C(O)C(=O)CBr [3BP, 3-Bromopyruvate]
side effects of administration / clinical use [2]: pain and phlebitis

O=C(O)C(Cl)Cl [DCA, Dichloroacetate]
side effects of administration / clinical use [2]: neurotoxicity

C[C@@H](O)C(=O)O[C@H](C)C(=O)O [DLAD, D-Lactic Acid Dimer]
melanoma cytotoxicity as measured by Ki-67 nuclei [4]: impressive melanoma cytotoxicity
